# Like-named read-outs stand apart in the source and are kept apart here.
# Biological target: T1, GST-FAK (N-terminal GST fusion with truncated human FAK (376-1052 (end) amino acids)) (Homo sapiens, UniProt Q05397)
# T1 construct: truncated human FAK (376-1052 (end) amino acids)
# Experiment: Biochemical enzyme assay for FAK activity (Caliper LC3000 mobility shift)
# Conditions: 100 uM ATP, read-out: FAK IC50
# Procedure: 1. Biochemical Enzyme Assays for FAK Activity
# The FAK assays described here are performed on two Caliper Life Sciences systems, the LC3000 and the EZ Reader II. These provide data on enzyme activity via measurement of the relative amounts of phosphorylated or unphosphorylated fluorescently labelled substrate peptide at the end of an enzymatic reaction. These different states of peptide are resolved by applying a potential difference across the sample. The presence of the charged phosphate group on the product (as opposed to the substrate) causes different peptide mobility between the two peptides. This is visualized by excitation of the fluorescent label on the substrate and product peptides and represented as peaks within the analysis software.
# In order to measure inhibitor activity of FAK, inhibitors in the Caliper Life Sciences LC3000, a TTP Mosquito liquid handling instrument is used to place 0.25 ul of the appropriate concentration of inhibitor in 100% DMSO (for a dose response curve calculation) into each well of a 384-well plate. To this reaction components are added to a final volume of 25 ul: • 0.067 ng/ul GST-FAK (N-terminal GST fusion with truncated human FAK (376-1052 (end) amino acids)) • 100 uM ATP • 1 mM DTT • 1 mM MgCl2 • 1 uM substrate peptide (sequence FITC-KGWMEDYDYVHLQGKK-(CONH2)SEQ ID NO: 1)) • 1 mM FERM peptide (sequence NH2-GATQSFIIR-COOH (SEQ ID NO: 2)) • 100 mM HEPES pH 7.5 • 0.015% Brij-35
# The reaction is incubated for 90 min at 25 C, and then stopped by the addition of 70 ul of Stop buffer (100 mM HEPES pH 7.5, 0.015% Brij-35, 10 mM EDTA).
# The plate is read on a Caliper LC 3000 in an Off-Chip mobility shift assay format, using the following parameters for a 12-sipper chip: screening pressure—1.9 psi, upstream voltage—3000, downstream voltage—700. These conditions cause unphosphorylated substrate and phosphorylated product peptide to resolve as separate peaks allowing direct measurement of percentage of conversion of substrate to product. The percent conversion can be plotted against concentration of inhibitor to produce a sigmoid dose response curve, from which an IC50 can be calculated using XLFit for Microsoft Excel.
# T1 sequence (Q05397 376-1052): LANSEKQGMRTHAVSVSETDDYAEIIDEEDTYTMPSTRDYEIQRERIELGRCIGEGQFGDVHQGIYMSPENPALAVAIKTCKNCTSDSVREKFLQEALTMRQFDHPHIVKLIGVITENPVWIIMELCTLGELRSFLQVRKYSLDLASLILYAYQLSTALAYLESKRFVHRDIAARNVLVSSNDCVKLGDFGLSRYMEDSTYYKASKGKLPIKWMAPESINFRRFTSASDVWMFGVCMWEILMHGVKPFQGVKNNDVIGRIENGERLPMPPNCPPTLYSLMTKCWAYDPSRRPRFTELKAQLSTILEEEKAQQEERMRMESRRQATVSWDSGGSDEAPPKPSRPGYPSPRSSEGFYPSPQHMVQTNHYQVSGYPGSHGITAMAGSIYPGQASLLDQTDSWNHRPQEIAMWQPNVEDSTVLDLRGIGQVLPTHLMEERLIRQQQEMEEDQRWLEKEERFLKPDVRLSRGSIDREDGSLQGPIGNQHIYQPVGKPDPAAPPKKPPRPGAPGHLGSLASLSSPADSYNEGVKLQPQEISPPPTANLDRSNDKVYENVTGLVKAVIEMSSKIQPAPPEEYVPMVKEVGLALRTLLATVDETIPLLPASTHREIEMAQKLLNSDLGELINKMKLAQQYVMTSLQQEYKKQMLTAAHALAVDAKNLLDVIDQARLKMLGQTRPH
IC50 (Table 5),IC50 (Table 3),Structure (SMILES),further results
,,"COc1cncc(-c2nccc(NCc3ccc(Oc4ccc(F)cc4)cc3)n2)c1 [Compound 2, [4-(4-Fluoro-phenoxy)-benzyl]-[2-(5-methoxy-pyridin-3-yl)-pyrimidin-4-yl]-amine]",IC50 (Table 1): > 10 µM
,,"COc1cncc(-c2nccc(NCc3ccc4c(c3)OCCO4)n2)c1 [Compound 6, (2,3-Dihydro-benzo[1,4]dioxin-6-ylmethyl)-[2-(5-methoxy-pyridin-3-yl)-pyrimidin-4-yl]-amine]",IC50 (Table 1): > 10 µM
> 10 µM,,"COc1cncc(-c2nccc(NCc3ccncc3)n2)c1 [Compound 230, [2-(5-Methoxy-pyridin-3-yl)-pyrimidin-4-yl]-pyridin-4-ylmethyl-amine]",
,> 10 µM,"Cc1ccc(CNc2ccnc(-c3cccnc3N)n2)cc1 [Compound 92, 2-(2-Aminopyridin-3-yl)-N-(4-methylbenzyl)pyrimidin-4-amine]",
,> 10 µM,"Nc1ncccc1-c1cccc(NCc2ccccc2F)c1 [Compound 105, 3-{3-[(2-Fluorobenzyl)amino]phenyl}pyridin-2-amine]",
> 10 µM,,"COc1cncc(-c2nccc(NCCc3ccccc3)n2)c1 [Compound 187, [2-(5-Methoxy-pyridin-3-yl)-pyrimidin-4-yl]-phenethyl-amine]",
,,"COc1ccc(CNc2ccnc(-c3cncc(C(F)(F)F)c3)n2)c(F)c1F [Compound 24, (2,3-Difluoro-4-methoxy-benzyl)-[2-(5-trifluoromethyl-pyridin-3-yl)-pyrimidin-4-yl]-amine]",IC50 (Table 1): 1 to 10 µM
,1 to 10 µM,"Nc1ncccc1-c1nccc(NCc2c(F)cccc2C(F)(F)F)n1 [Compound 111, 2-(2-Aminopyridin-3-yl)-N-[2-fluoro-6-(trifluoromethyl)benzyl]pyrimidin-4-amine]",
,1 to 10 µM,"Nc1ncccc1-c1nccc(NCc2ccccc2OC(F)(F)F)n1 [Compound 84, 2-(2-Aminopyridin-3-yl)-N-[2-(trifluoromethoxy)benzyl]pyrimidin-4-amine]",
> 10 µM,,"COc1cncc(-c2nccc(NCc3ccccc3-c3ccccc3S(C)(=O)=O)n2)c1 [Compound 193, (2′-Methanesulfonyl-biphenyl-2-ylmethyl)-[2-(5-methoxy-pyridin-3-yl)-pyrimidin-4-yl]-amine]",
0.1 to 1 µM,,"CC(Nc1ccnc(-c2cncc(C(F)(F)F)c2)n1)c1ccccc1F (stereo not drawn) [Compound 267, [1-(2-Fluoro-phenyl)-ethyl]-[2-(5-trifluoromethyl-pyridin-3-yl)-pyrimidin-4-yl]-amine]",
,> 10 µM,"CNC[C@@H](Nc1ccnc(-c2cccnc2N)n1)c1ccccc1 [Compound 146, (S)-N1-[2-(2-Amino-pyridin-3-yl)-pyrimidin-4-yl]-N2-methyl-1-phenyl-ethane-1,2-diamine]",
> 10 µM,,"COc1cncc(-c2nccc(NCc3cc(C)nn3C)n2)c1 [Compound 222, (2,5-Dimethyl-2H-pyrazol-3-ylmethyl)-[2-(5-methoxy-pyridin-3-yl)-pyrimidin-4-yl]-amine]",
0.1 to 1 µM,,"CNC(=O)C1(NC(=O)c2cc(NCc3ccc(F)cc3F)nc(-c3cncc(C(F)(F)F)c3)n2)CC1 [Compound 262, 6-(2,4-Difluoro-benzylamino)-2-(5-trifluoromethyl-pyridin-3-yl)-pyrimidine-4-carboxylic acid (1-methylcarbamoyl-cyclopropyl)-amide]",
,,"CC1(C)Cc2cccc(CNc3ccnc(-c4cncc(Cl)c4)n3)c2O1 [Compound 18, [2-(5-Chloro-pyridin-3-yl)-pyrimidin-4-yl]-(2,2-dimethyl-2,3-dihydro-benzofuran-7-ylmethyl)-amine]",IC50 (Table 1): > 10 µM
,,"O=C(c1cncc(-c2nccc(NCc3ccc(Oc4ccc(F)cc4)cc3)n2)c1)N1CCOCC1 [Compound 13, (5-{4-[4-(4-Fluoro-phenoxy)-benzylamino]-pyrimidin-2-yl}-pyridin-3-yl)-morpholin-4-yl-methanone]",IC50 (Table 1): > 10 µM
,,"Fc1ccccc1CNc1ccnc(-c2cncc(Cl)c2)n1 [Compound 38, [2-(5-Chloro-pyridin-3-yl)-pyrimidin-4-yl]-(2-fluoro-benzyl)-amine]",IC50 (Table 1): < 0.1 µM
,> 10 µM,"CNC[C@H](Nc1ccnc(-c2cccnc2N)n1)c1ccccc1 [Compound 147, (R)-N1-[2-(2-Amino-pyridin-3-yl)-pyrimidin-4-yl]-N2-methyl-1-phenyl-ethane-1,2-diamine]",

IC50 (Table 5),IC50 (Table 3),Structure (SMILES),further results
,> 10 µM,"Cc1cc(NCc2cccc(F)c2)nc(-c2cccnc2)n1 [Compound 142, N-(3-Fluorobenzyl)-6-methyl-2-pyridin-3-ylpyrimidin-4-amine]",
,1 to 10 µM,"Nc1ncccc1-c1cc(NCc2ccccc2C(F)(F)F)ccn1 [Compound 113, N4-[2-(trifluoromethyl)benzyl]-2,3′-bipyridine-2′,4-diamine]",
,,"CC(Nc1ccnc(-c2cncc(C(F)(F)F)c2)n1)c1ccc(F)cc1 (stereo not drawn) [Compound 68, [1-(4-Fluoro-phenyl)-ethyl]-[2-(5-trifluoromethyl-pyridin-3-yl)-pyrimidin-4-yl]-amine]",IC50 (Table 2): 0.1 to 1 µM
,> 10 µM,"c1ccc(CNc2ccnc(-c3cccnc3)n2)cc1 [Compound 139, N-Benzyl-2-pyridin-3-ylpyrimidin-4-amine]",
1 to 10 µM,,"COc1cncc(-c2nccc(NCCc3ccccc3OC)n2)c1 [Compound 202, [2-(2-Methoxy-phenyl)-ethyl]-[2-(5-methoxy-pyridin-3-yl)-pyrimidin-4-yl]-amine]",
> 10 µM,,"Fc1ccc(CNc2cc(-c3cncc(C(F)(F)F)c3)ncn2)c(F)c1 [Compound 254, (2,4-Difluoro-benzyl)-[6-(5-trifluoromethyl-pyridin-3-yl)-pyrimidin-4-yl]-amine]",
,1 to 10 µM,"COc1ccccc1CNc1ccnc(-c2cccnc2N)n1 [Compound 83, 2-(2-Aminopyridin-3-yl)-N-(2-methoxybenzyl)pyrimidin-4-amine]",
,,"Fc1cc(Cl)ccc1CNc1ccnc(-c2cncc(Cl)c2)n1 [Compound 32, (4-Chloro-2-fluoro-benzyl)-[2-(5-chloro-pyridin-3-yl)-pyrimidin-4-yl]-amine]",IC50 (Table 1): < 0.1 µM
,,"COc1cncc(-c2nccc(NCc3cccc(-n4cccn4)c3)n2)c1 [Compound 5, [2-(5-Methoxy-pyridin-3-yl)-pyrimidin-4-yl]-(3-pyrazol-1-yl-benzyl)-amine]",IC50 (Table 1): 1 to 10 µM
0.1 to 1 µM,,"CN1CCN(C(=O)c2cc(NCc3ccc(F)cc3F)nc(-c3cncc(C(F)(F)F)c3)n2)CC1 [Compound 259, [6-(2,4-Difluoro-benzylamino)-2-(5-trifluoromethyl-pyridin-3-yl)-pyrimidin-4-yl]-(4-methyl-piperazin-1-yl)-methanone]",
1 to 10 µM,,"CNC(=O)C(Nc1ccnc(-c2cncc(C(F)(F)F)c2)n1)c1ccccc1 (stereo not drawn) [Compound 268, N-Methyl-2-phenyl-2-[2-(5-trifluoromethyl-pyridin-3-yl)-pyrimidin-4-ylamino]-acetamide]",
,,"Fc1ccc(Oc2ccc(CNc3ccnc(-c4cncc(C(F)(F)F)c4)n3)cc2)cc1 [Compound 25, [4-(4-Fluoro-phenoxy)-benzyl]-[2-(5-trifluoromethyl-pyridin-3-yl)-pyrimidin-4-yl]-amine]",IC50 (Table 1): > 10 µM
1 to 10 µM,,"FC(F)(F)c1cccc(CCNc2ccnc(-c3cncc(C(F)(F)F)c3)n2)c1 [Compound 191, [2-(3-Trifluoromethyl-phenyl)-ethyl]-[2-(5-trifluoromethyl-pyridin-3-yl)-pyrimidin-4-yl]-amine]",
,1 to 10 µM,"Nc1ncccc1-c1nccc(NCc2ncccc2C(F)(F)F)n1 [Compound 100, 2-(2-Aminopyridin-3-yl)-N-{[3-(trifluoromethyl)pyridin-2-yl]methyl}pyrimidin-4-amine]",
1 to 10 µM,,"CN(c1ncccc1CNc1ccnc(-c2cncc(C(F)(F)F)c2)n1)S(C)(=O)=O [Compound 265, N-Methyl-N-(3-{[2-(5-trifluoromethyl-pyridin-3-yl)-pyrimidin-4-ylamino]-methyl}-pyridin-2-yl)-methanesulfonamide]",
,,"O=C(c1cncc(-c2nccc(NCc3ccc4c(c3)OCCO4)n2)c1)N1CCOCC1 [Compound 15, (5-{4-[(2,3-Dihydro-benzo[1,4]dioxin-6-ylmethyl)-amino]-pyrimidin-2-yl}-pyridin-3-yl)-morpholin-4-yl-methanone]",IC50 (Table 1): > 10 µM
< 0.1 µM,,"CN(C)C(=O)c1cc(NCc2ccc(F)cc2F)nc(-c2cncc(C(F)(F)F)c2)n1 [Compound 264, 6-(2,4-Difluoro-benzylamino)-2-(5-trifluoromethyl-pyridin-3-yl)-pyrimidine-4-carboxylic acid dimethylamide]",
,> 10 µM,"Nc1ncccc1-c1nccc(NC2CCOc3ccccc32)n1 (stereo not drawn) [Compound 116, 2-(2-Aminopyridin-3-yl)-N-(3,4-dihydro-2H-chromen-4-yl)pyrimidin-4-amine]",

# — US9199962B2, “Substituted azaheterocycles for the treatment of cancer” (Merck Patent GmbH, priority 2011, dated 2015)
